Results taken from the supplement of paper PMC10627819.

Test system: S. pneumoniae D39V
Test: fitness (endpoint OD595 vs no drug) (fraction); higher = more growth
How it was run: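 Fitness expresses the optical density reached at the stationary-phase transition as a fraction of the robust mean of no-drug control wells. It is capped at 1. Measurements were OD595 every 30 min for 14 h at 37 °C after inoculation of 384-well plates at OD595 0.01 (30 µl, or 55 µl for S. pneumoniae), minus the first reading.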
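Also: OD595 on entry to stationary phase over no-drug wells; at most 1.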

O=C1CN(/N=C/c2ccc([N+](=O)[O-])o2)C(=O)N1 [Nitrofurantoin] + CCC(C)C1C(=O)NC(=C)C(=O)NC(C(=O)NC(CSCC(C(=O)N1)NC(=O)/C(=C/C)/NC(=O)C(C(C)CC)N)C(=O)NC2C(SCC(NC(=O)CNC(=O)C3CCCN3C2=O)C(=O)NC(CCCCN)C(=O)NC4C(SCC(NC(=O)CNC(=O)C(NC(=O)C(NC(=O)C(NC(=O)CNC4=O)C)CC(C)C)CCSC)C(=O)NC(CC(=O)N)C(=O)NC(CCSC)C(=O)NC(CCCCN)C(=O)NC5C(SCC6C(=O)NC(C(=O)NC(CSC(C(C(=O)N6)NC(=O)C(NC5=O)C)C)C(=O)NC(CO)C(=O)NC(C(C)CC)C(=O)NC(CC7=CN=CN7)C(=O)NC(C(C)C)C(=O)NC(=C)C(=O)NC(CCCCN)C(=O)O)CC8=CN=CN8)C)C)C)CC(C)C [Nisin]
main component drawn
Details | fitness
first compound 1.285 µg/mL, partner 1.6 µg/mL | 0.0025
first compound 1.285 µg/mL, partner 3.2 µg/mL | 0.0467
first compound 1.285 µg/mL, partner 6.4 µg/mL | 0.0134
first compound 2 µg/mL, partner 0.4275 µg/mL | 0.988
first compound 2 µg/mL, partner 0.855 µg/mL | 0.991
first compound 2 µg/mL, partner 1.71 µg/mL | 0.075
first compound 2.57 µg/mL, partner 1.6 µg/mL | 0.0197
first compound 2.57 µg/mL, partner 3.2 µg/mL | 0.0583
first compound 2.57 µg/mL, partner 6.4 µg/mL | 0.0339
first compound 4 µg/mL, partner 0.4275 µg/mL | 0.971
first compound 4 µg/mL, partner 0.855 µg/mL | 0.993
first compound 4 µg/mL, partner 1.71 µg/mL | 0.0559
first compound 8 µg/mL, partner 0.4275 µg/mL | 0.85
first compound 8 µg/mL, partner 1.71 µg/mL | 0.0537

first compound 5.14 µg/mL, one replicate, main component drawn
Details | fitness
partner 1.6 µg/mL | 0.0172
partner 3.2 µg/mL | 0.0456
partner 6.4 µg/mL | 0.0152

CC[C@H]1OC(=O)[C@H](C)[C@@H](O[C@H]2C[C@@](C)(OC)[C@@H](O)[C@H](C)O2)[C@H](C)[C@@H](O[C@@H]2O[C@H](C)C[C@H](N(C)C)[C@H]2O)[C@](C)(OC)C[C@@H](C)C(=O)[C@H](C)[C@@H](O)[C@]1(C)O [Clarithromycin] + CO/N=C(\C(=O)N[C@@H]1C(=O)N2C(C(=O)O)=C(COC(C)=O)CS[C@H]12)c1csc(N)n1 [Cefotaxime]
fitness, one replicate
Details | first compound 0.007812 µg/mL | first compound 0.01562 µg/mL | first compound 0.03125 µg/mL
partner 0.0018 µg/mL | 0.903 | 0.874 | 0.652
partner 0.0035 µg/mL | 0.922 | 0.868 | 0.662
partner 0.007 µg/mL | 0.704 | 0.698 | 0.596

fitness
Details | first compound 0.0625 µg/mL | first compound 0.07 µg/mL | first compound 0.125 µg/mL | first compound 0.14 µg/mL | first compound 0.25 µg/mL | first compound 0.28 µg/mL
partner 0.0018 µg/mL | 0.643 | 0.155 | 0.36 | 0.11 | 0.134 | 0.0567
partner 0.0035 µg/mL | 0.626 | 0.149 | 0.354 | 0.106 | 0.136 | 0.0647
partner 0.007 µg/mL | 0.532 | 0.103 | 0.296 | 0.108 | 0.0943 | 0.0726

CCC[C@@H]1C[C@@H](C(=O)N[C@@H]([C@H]2O[C@H](SC)[C@H](O)[C@@H](O)[C@H]2O)[C@H](C)Cl)N(C)C1 [Clindamycin] + CC[C@H]1OC(=O)[C@H](C)[C@@H](O[C@H]2C[C@@](C)(OC)[C@@H](O)[C@H](C)O2)[C@H](C)[C@@H](O[C@@H]2O[C@H](C)C[C@H](N(C)C)[C@H]2O)[C@](C)(OC)C[C@@H](C)C(=O)[C@H](C)[C@@H](O)[C@]1(C)O [Clarithromycin]
fitness
Details | first compound 0.0125 µg/mL | first compound 0.015 µg/mL | first compound 0.025 µg/mL | first compound 0.03 µg/mL | first compound 0.05 µg/mL | first compound 0.06 µg/mL
partner 0.0625 µg/mL | 0.563 | – | 0.422 | – | 0.164 | –
partner 0.07 µg/mL | – | 0.136 | – | 0.11 | – | 0.0799
partner 0.125 µg/mL | 0.409 | – | 0.338 | – | 0.109 | –
partner 0.14 µg/mL | – | 0.087 | – | 0.081 | – | 0.115
partner 0.25 µg/mL | 0.181 | – | 0.121 | – | 0.0631 | –
partner 0.28 µg/mL | – | 0.0757 | – | 0.0789 | – | 0.0946

fitness, one replicate
Details | first compound 0.015 µg/mL | first compound 0.03 µg/mL | first compound 0.06 µg/mL
partner 0.007812 µg/mL | 0.728 | 0.578 | 0.283
partner 0.01562 µg/mL | 0.746 | 0.637 | 0.371
partner 0.03125 µg/mL | 0.635 | 0.557 | 0.175

CC[C@H]1OC(=O)[C@H](C)[C@@H](O[C@H]2C[C@@](C)(OC)[C@@H](O)[C@H](C)O2)[C@H](C)[C@@H](O[C@@H]2O[C@H](C)C[C@H](N(C)C)[C@H]2O)[C@](C)(OC)C[C@@H](C)C(=O)[C@H](C)[C@@H](O)[C@]1(C)O [Clarithromycin] + CN(C)[C@@H]1C(O)=C(C(N)=O)C(=O)[C@@]2(O)C(O)=C3C(=O)c4c(O)ccc(Cl)c4[C@@](C)(O)[C@H]3C[C@@H]12 [Chlortetracycline]
fitness, one replicate
Details | first compound 0.007812 µg/mL | first compound 0.01562 µg/mL | first compound 0.03125 µg/mL
partner 0.012 µg/mL | 0.693 | 0.688 | 0.542
partner 0.024 µg/mL | 0.844 | 0.654 | 0.455
partner 0.048 µg/mL | 0.693 | 0.519 | 0.244

fitness
Details | first compound 0.0625 µg/mL | first compound 0.07 µg/mL | first compound 0.125 µg/mL | first compound 0.14 µg/mL | first compound 0.25 µg/mL | first compound 0.28 µg/mL
partner 0.012 µg/mL | – | 0.0902 | – | 0.14 | – | 0.093
partner 0.024 µg/mL | – | 0.121 | – | 0.122 | – | 0.0945
partner 0.048 µg/mL | – | 0.123 | – | 0.132 | – | 0.118
partner 0.375 µg/mL | 0.0643 | – | 0.0595 | – | 0.0683 | –
partner 0.75 µg/mL | 0.0438 | – | 0.0485 | – | 0.0679 | –
partner 1.5 µg/mL | 0.0386 | – | 0.0516 | – | 0.0374 | –

C[C@@H](O)[C@H]1C(=O)N2C(C(=O)O)=C(SCCNC=N)C[C@H]12 [Imipenem] + CC1=C(C(=O)O)N2C(=O)[C@@H](NC(=O)[C@H](N)c3ccccc3)[C@H]2SC1 [Cephalexin]
fitness, one replicate
Details | first compound 0.005 µg/mL | first compound 0.01 µg/mL | first compound 0.02 µg/mL
partner 0.125 µg/mL | 0.899 | 0.909 | 0.942
partner 0.25 µg/mL | 0.874 | 0.946 | 0.938
partner 0.5 µg/mL | 0.943 | 0.978 | 0.95

fitness
Details | first compound 0.0065 µg/mL | first compound 0.013 µg/mL | first compound 0.026 µg/mL
partner 1 µg/mL | 0.278 | 0.4 | 0.176
partner 2 µg/mL | 0.0001 | 0.0222 | 0.0128
partner 4 µg/mL | 0.0361 | 0.0148 | 0.0072

CC[C@H]1OC(=O)[C@H](C)[C@@H](O[C@H]2C[C@@](C)(OC)[C@@H](O)[C@H](C)O2)[C@H](C)[C@@H](O[C@@H]2O[C@H](C)C[C@H](N(C)C)[C@H]2O)[C@](C)(OC)C[C@@H](C)C(=O)[C@H](C)[C@@H](O)[C@]1(C)O [Clarithromycin] + CO/N=C(\C(=O)N[C@@H]1C(=O)N2C(C(=O)[O-])=C(C[N+]3(C)CCCC3)CS[C@H]12)c1csc(N)n1 [Cefepime]
fitness, one replicate
Details | first compound 0.007812 µg/mL | first compound 0.01562 µg/mL | first compound 0.03125 µg/mL
partner 0.0078 µg/mL | 0.887 | 0.866 | 0.673
partner 0.0155 µg/mL | 0.884 | 0.834 | 0.635
partner 0.031 µg/mL | 0.456 | 0.491 | 0.456

fitness
Details | first compound 0.0625 µg/mL | first compound 0.07 µg/mL | first compound 0.125 µg/mL | first compound 0.14 µg/mL | first compound 0.25 µg/mL | first compound 0.28 µg/mL
partner 0.007 µg/mL | 0.67 | – | 0.43 | – | 0.165 | –
partner 0.0078 µg/mL | – | 0.187 | – | 0.0821 | – | 0.103
partner 0.014 µg/mL | 0.675 | – | 0.458 | – | 0.181 | –
partner 0.0155 µg/mL | – | 0.168 | – | 0.105 | – | 0.108
partner 0.028 µg/mL | 0.611 | – | 0.358 | – | 0.136 | –
partner 0.031 µg/mL | – | 0.0769 | – | 0.102 | – | 0.091
